According to patent publication US20250026752A1, “POSITIVE ALLOSTERIC MODULATORS OF THE MUSCARINIC ACETYLCHOLINE RECEPTOR M4” (Vanderbilt University, priority 2021, published 2025):

Target: T1, human mAChR M4 (Homo sapiens, UniProt P08173)
T1 construct: expressed in transfected cells; host or cells: CHO-K1 (ATCC), stably expressing hM4 and Gqi5
T1 sequence (P08173 1-479): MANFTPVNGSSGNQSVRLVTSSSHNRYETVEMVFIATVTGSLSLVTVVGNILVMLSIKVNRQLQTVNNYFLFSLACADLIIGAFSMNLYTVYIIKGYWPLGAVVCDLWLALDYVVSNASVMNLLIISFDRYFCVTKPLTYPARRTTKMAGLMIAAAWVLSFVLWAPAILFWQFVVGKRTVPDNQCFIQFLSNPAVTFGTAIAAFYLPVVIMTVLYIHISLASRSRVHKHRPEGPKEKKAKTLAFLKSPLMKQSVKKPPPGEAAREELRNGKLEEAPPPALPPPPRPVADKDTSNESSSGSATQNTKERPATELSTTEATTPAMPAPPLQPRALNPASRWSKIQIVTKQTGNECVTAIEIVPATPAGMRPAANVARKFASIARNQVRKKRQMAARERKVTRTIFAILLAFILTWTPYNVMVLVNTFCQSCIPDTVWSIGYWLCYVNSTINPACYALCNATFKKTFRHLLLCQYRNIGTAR
Experiment: mAChR M4 cell-based functional assay: calcium flux (Fluo-4, FDSS), positive allosteric modulator activity on the EC20 acetylcholine response, hM4-Gqi5 CHO-K1 cells
Settings: for Emax at 30 µM: CHO-K1, human M4, % ACh maximum at 30 μM; for EC50: human M4, PAM activity on EC20 acetylcholine response, calcium flux, read-out: Human M4 EC50
Protocol: Human M4 cDNA, along with the chimeric G protein Gqi5, were transfected into Chinese hamster ovary (CHO-K1) cells purchased from the American Type Culture Collection using commercially available Lipofectamine 2000 transfection reagent (Dalby, B. et al., Methods (2004) 33(2), 95-103). hM4-Gqi5 cells were grown in Ham's F-12 medium containing 10% heat-inactivated fetal bovine serum (FBS), 20 mM […], 50 μg/mL G418 sulfate (CAS #108321-42-2), and 500 μg/mL Hygromycin B. rM4-Gqi5 cells were grown in DMEM containing 10% heat-inactivated FBS, 20 mM HEPES, 400 μg/mL G418 sulfate, and 500 μg/mL Hygromycin B.
For high throughput measurement of agonist-evoked increases in intracellular calcium, CHO-K1 cells stably expressing muscarinic receptors were plated in growth medium lacking G418 sulfate and hygromycin at 15,000 cells/20 μL/well in Greiner 384-well black-walled, tissue culture (TC)-treated, clear-bottom plates (VWR). Cells were incubated overnight at 37° C. and 5% C02. The next day, cells were washed using an ELX 405 (BioTek) with assay buffer; the final volume was then aspirated to 20 μL. Next, 20 μL of a 2.3 μM stock of Fluo-4/acetoxymethyl ester (Invitrogen, Carlsbad, CA), prepared as a 2.3 mM stock in DMSO and mixed in a 1:1 ratio with 10% (w/v) Pluronic F-127 and diluted in assay buffer, was added to the wells and the cell plates were incubated for 50 minutes at 37° C. and 5% C02. Dye was removed by washing with the ELX 405 and the final volume was aspirated to 20 μL. Compound master plates were formatted in an 11 point concentration-response curve (CRC) format (1:3 dilutions) in 100% DMSO with a starting concentration of 10 mM using a BRAVO liquid handler (Agilent). Test compound CRCs were then transferred to daughter plates (240 nL) using the Echo acoustic plate reformatter (Labcyte, Sunnyvale, CA) and then diluted into assay buffer (40 μL) to a 2× stock using a Thermo Fisher Combi (Thermo Fisher Scientific, Waltham, MA).
Calcium flux was measured using the Functional Drug Screening System (FDSS) 6000 or 7000 (Hamamatsu Corporation, Tokyo, Japan) as an increase in the fluorescent static ratio. Compounds were applied to cells (20 μL, 2×) using the automated system of the FDSS at 2-4 seconds into the protocol and the data were collected at 1 Hz. At 144 seconds, 10 μL of an EC20 concentration of the muscarinic receptor agonist acetylcholine was added (5×), followed by the addition of 12 μL of an EC80 concentration of acetylcholine at the 230 second time point (5×). Agonist activity was analyzed as a concentration-dependent increase in calcium mobilization upon compound addition. Positive allosteric modulator activity was analyzed as a concentration-dependent increase in the EC20 acetylcholine response. With the acetylcholine EC20 set as baseline, the test compound EC50 is determined as the concentration that produces an increase above baseline of 50% of the maximum increase in acetylcholine response elicted by the test compound. Antagonist activity was analyzed as a concentration-dependent decrease in the ECso acetylcholine response. Concentration-response curves were generated using a four-parameter logistical equation in XLFit curve fitting software (IDBS, Bridgewater, NJ) for Excel (Microsoft, Redmond, WA) or Prism (GraphPad Software, Inc., San Diego, CA).
Compounds were synthesized as described above. Activity (EC50 and Emax) was determined in the mAChR M4 cell-based functional assay as described above and the data are shown in Table 4. The compound numbers correspond to the compound numbers used in Examples 1-33 and Tables 1, 2, and 3.

Row | Emax at 30 µM | EC50 | Compound
1 | 59% | 470 nM | FC(F)(F)c1ccc(-c2cnc3c(c2)CN(c2ncnc4ccc(Cl)cc24)CC3)cn1 [Compound 44, 6-chloro-4-[3-[6-(trifluoromethyl)-3-pyridyl]-7,8-dihydro-5H-1,6-naphthyridin-6-yl]quinazoline]
2 | 98% | 60 nM | Cc1nc(N2CCc3ncc(-c4ccnn4C)cc3C2)c2cc(Cl)ccc2n1 [Compound 45, 6-chloro-2-methyl-4-[3-(2-methylpyrazol-3-yl)-7,8-dihydro-5H-1,6-naphthyridin-6-yl]quinazoline]
3 | 97% | 170 nM | Cc1nc(N2CCc3ncc(-c4cnn(C)c4)cc3C2)c2cc(Cl)ccc2n1 [Compound 46, 6-chloro-2-methyl-4-[3-(1-methylpyrazol-4-yl)-7,8-dihydro-5H-1,6-naphthyridin-6-yl]quinazoline]
4 | 99% | 140 nM | Cc1nc(N2CCc3ncc(-c4c(C)noc4C)cc3C2)c2cc(Cl)ccc2n1 [Compound 47, 4-[6-(6-chloro-2-methyl-quinazolin-4-yl)-7,8-dihydro-5H-1,6-naphthyridin-3-yl]-3,5-dimethyl-isoxazole]
5 | 92% | 270 nM | Cc1nc(N2CCc3ncc(-c4cnc(C)s4)cc3C2)c2cc(Cl)ccc2n1 [Compound 48, 5-[6-(6-chloro-2-methyl-quinazolin-4-yl)-7,8-dihydro-5H-1,6-naphthyridin-3-yl]-2-methyl-thiazole]
6 | 81% | 1230 nM | Cc1nc(N2CCc3ncc(-c4ccc(N(C)C)nc4)cc3C2)c2cc(Cl)ccc2n1 [Compound 49, 5-[6-(6-chloro-2-methyl-quinazolin-4-yl)-7,8-dihydro-5H-1,6-naphthyridin-3-yl]-N,N-dimethyl-pyridin-2-amine]
7 | 83% | 1070 nM | Cc1nc(N2CCc3ncc(-c4ccc(C5CC5)nc4)cc3C2)c2cc(Cl)ccc2n1 [Compound 50, 6-chloro-4-[3-(6-cyclopropyl-3-pyridyl)-7,8-dihydro-5H-1,6-naphthyridin-6-yl]-2-methyl-quinazoline]
8 | 95% | 290 nM | Cc1ccc(-c2cnc3c(c2)CN(c2nc(C)nc4ccc(Cl)cc24)CC3)cn1 [Compound 51, 6-chloro-2-methyl-4-[3-(6-methyl-3-pyridyl)-7,8-dihydro-5H-1,6-naphthyridin-6-yl]quinazoline]
9 | 87% | 80 nM | Cc1ncc(-c2cnc3c(c2)CN(c2ncnc4cc(F)c(F)cc24)CC3)s1 [Compound 52, 5-[6-(6,7-difluoroquinazolin-4-yl)-7,8-dihydro-5H-1,6-naphthyridin-3-yl]-2-methyl-thiazole]
10 | 84% | 130 nM | Cc1ccc(-c2cnc3c(c2)CN(c2ncnc4cc(F)c(F)cc24)CC3)cn1 [Compound 53, 6,7-difluoro-4-[3-(6-methyl-3-pyridyl)-7,8-dihydro-5H-1,6-naphthyridin-6-yl]quinazoline]
11 | 85% | 200 nM | Fc1cc2ncnc(N3CCc4ncc(-c5cnn(C6CC6)c5)cc4C3)c2cc1F [Compound 54, 4-[3-(1-cyclopropylpyrazol-4-yl)-7,8-dihydro-5H-1,6-naphthyridin-6-yl]-6,7-difluoro-quinazoline]
12 | 92% | 480 nM | Cc1ccc2nc(C)nc(N3CCc4ncc(-c5cnc(C)s5)cc4C3)c2c1 [Compound 55, 5-[6-(2,6-dimethylquinazolin-4-yl)-7,8-dihydro-5H-1,6-naphthyridin-3-yl]-2-methyl-thiazole]
13 | 45% | 1930 nM | Cc1nc(N2CCc3ncc(-c4cnc(C)s4)cc3C2)c2cc(C(F)(F)F)ccc2n1 [Compound 56, 2-methyl-5-[6-[2-methyl-6-(trifluoromethyl)quinazolin-4-yl]-7,8-dihydro-5H-1,6-naphthyridin-3-yl]thiazole]
14 | 59% | 2890 nM | Cc1nc(N2CCc3ncc(-c4cn(C)nc4C)cc3C2)c2cc(C(F)(F)F)ccc2n1 [Compound 57, 4-[3-(1,3-dimethylpyrazol-4-yl)-7,8-dihydro-5H-1,6-naphthyridin-6-yl]-2-methyl-6-(trifluoromethyl)quinazoline]
15 | 45% | 1220 nM | Cc1ccc(-c2cnc3c(c2)CN(c2nc(C)nc4ccc(C(F)(F)F)cc24)CC3)cn1 [Compound 58, 2-methyl-4-[3-(6-methyl-3-pyridyl)-7,8-dihydro-5H-1,6-naphthyridin-6-yl]-6-(trifluoromethyl)quinazoline]
16 | 58% | 1970 nM | Cc1nc(N2CCc3ncc(-c4cnn(C5CC5)c4)cc3C2)c2cc(C(F)(F)F)ccc2n1 [Compound 59, 4-[3-(1-cyclopropylpyrazol-4-yl)-7,8-dihydro-5H-1,6-naphthyridin-6-yl]-2-methyl-6-(trifluoromethyl)quinazoline]
17 | 52% | 510 nM | COc1cc2c(N3CCc4ncc(-c5cn(C)nc5C)cc4C3)nc(Cl)nc2cc1F [Compound 60, 2-chloro-4-[3-(1,3-dimethylpyrazol-4-yl)-7,8-dihydro-5H-1,6-naphthyridin-6-yl]-7-fluoro-6-methoxy-quinazoline]
18 | 57% | 450 nM | COc1cc2c(N3CCc4ncc(-c5cn(C)nc5C)cc4C3)nc(C)nc2cc1F [Compound 61, 4-[3-(1,3-dimethylpyrazol-4-yl)-7,8-dihydro-5H-1,6-naphthyridin-6-yl]-7-fluoro-6-methoxy-2-methyl-quinazoline]
19 | 34% | 410 nM | Cn1cc(-c2cnc3c(c2)CN(c2nc(Cl)nc4cc(Cl)c(F)cc24)CC3)cn1 [Compound 62, 2,7-dichloro-6-fluoro-4-[3-(1-methylpyrazol-4-yl)-7,8-dihydro-5H-1,6-naphthyridin-6-yl]quinazoline]
20 | 26% | 400 nM | Cc1ccc(-c2cnc3c(c2)CN(c2nc(Cl)nc4cc(Cl)c(F)cc24)CC3)cn1 [Compound 63, 2,7-dichloro-6-fluoro-4-[3-(6-methyl-3-pyridyl)-7,8-dihydro-5H-1,6-naphthyridin-6-yl]quinazoline]
21 | 69% | 510 nM | Cc1cn(C)nc1-c1cnc2c(c1)CN(c1nc(C(F)(F)F)nc3ccc(F)cc13)CC2 [Compound 64, 4-[3-(1,4-dimethylpyrazol-3-yl)-7,8-dihydro-5H-1,6-naphthyridin-6-yl]-6-fluoro-2-(trifluoromethyl)quinazoline]
22 | 52% | 1380 nM | Fc1ccc2nc(C(F)(F)F)nc(N3CCc4ncc(-c5ccn(C6CC6)n5)cc4C3)c2c1 [Compound 65, 4-[3-(1-cyclopropylpyrazol-3-yl)-7,8-dihydro-5H-1,6-naphthyridin-6-yl]-6-fluoro-2-(trifluoromethyl)quinazoline]
